According to US9493451B2 (Bionomics Limited, priority 2011, dated 2016):

Target: T1, Kv1.3 (Homo sapiens, UniProt P22001)
T1 construct: expressed in transfected cells; host or cells: CHO (Kv1.3/CHO)
Assay: Electrophysiology: planar patch-clamp of Kv1.3 currents, IC50 from steady state current amplitude
Assay type: cell-based
Conditions: Kv1.3 electrophysiology, results according to Method D1, read-out: IC50 (Kv1.3 ephys steady state)
Method: The inhibition data shown for the compounds of the list below was calculated using the steady state current amplitude at the end of the depolarising pulse in patch clamp evaluations (as described in the Biology Protocols: 1. Electrophysiology).
Kv1.x currents were measured in Kv1.3/CHO or Kv1.5/CHO cells using a planar electrode version (Nanion Technologies GMBH) of the patch-clamp technique. Whole-cell Kv1.x current transients were evoked by 500 ms depolarising voltage pulses to +40 mV from a holding potential of −80 mV applied at 10 s intervals for Kv1.5 and at 30 s intervals for Kv1.3 to allow adequate time for recovery from inactivation. Cells were continuously bathed in a buffered saline solution containing (mM): 160 NaCl, 4.5 KCl, 2 CaCl2, 1 MgCl2, 5 glucose, 10 HEPES, pH 7.4, 290-310 mOsm·Kg^−1. The internal (pipette) solution contained (mM): 10 NaCl, 70 KF, 75 KCl, 2 MgCl2, 10 HEPES, 10 EGTA, pH 7.2, 290-310 mOsm·Kg^−1. Series resistance compensation (60-80%) was applied to cells in which the peak current amplitude exceeded 2 nA.
Compound Preparation and Potency Assessment
Compounds were initially dissolved in DMSO to 10 mM. After further dilution in DMSO, compounds were finally diluted in bath solution 1/200 (to give a final DMSO concentration of 0.5%) and applied directly to the recording chamber. Compounds were added at increasing concentrations allowing ample time for steady state block to be achieved between each concentration. Each compound was tested at 5-6 different concentrations on 2-3 cells. Compound IC50 values were determined by fitting the average normalised reduction of either the current integral or the steady state current amplitude at the end of the 500 ms depolarising pulse obtained at each compound concentration to the Hill equation. The IC50 data reported herein is based on the steady state calculation.

T1 sequence (P22001 whole entry): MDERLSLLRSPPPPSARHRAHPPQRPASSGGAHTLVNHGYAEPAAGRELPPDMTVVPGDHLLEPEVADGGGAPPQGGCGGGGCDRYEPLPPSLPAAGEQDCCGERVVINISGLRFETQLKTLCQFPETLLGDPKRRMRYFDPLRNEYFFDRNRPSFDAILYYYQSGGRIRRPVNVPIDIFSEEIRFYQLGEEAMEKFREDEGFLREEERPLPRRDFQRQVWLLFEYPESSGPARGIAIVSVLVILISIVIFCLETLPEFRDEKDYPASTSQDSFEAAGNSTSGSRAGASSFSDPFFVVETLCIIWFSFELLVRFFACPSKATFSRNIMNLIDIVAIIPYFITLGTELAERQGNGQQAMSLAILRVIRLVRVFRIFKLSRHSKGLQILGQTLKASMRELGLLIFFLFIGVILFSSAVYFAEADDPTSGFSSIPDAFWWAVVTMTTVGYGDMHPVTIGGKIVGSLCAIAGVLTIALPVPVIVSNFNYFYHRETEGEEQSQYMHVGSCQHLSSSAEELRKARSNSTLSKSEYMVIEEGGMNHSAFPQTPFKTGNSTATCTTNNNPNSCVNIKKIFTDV

Row | IC50 [nM] | Compound
1 | 50 to 200 | CC(C)C(c1ccc(OC(F)F)cc1)N(Cc1ccc(F)cn1)C(=O)C1CC1c1ccc(F)cc1F (stereo not drawn) [Example 115]
2 | 200 to 1000 | CCC(c1ccc(S(=O)(=O)CC)cc1)N(Cc1ccc(F)cn1)C(=O)C1CC1c1ccc(F)cc1 (stereo not drawn) [Example 116]
3 | 50 to 200 | CCC(c1ccc(S(=O)(=O)CC)cc1)N(Cc1ccc(F)cn1)C(=O)C1CC1c1ccc(F)cc1 (stereo not drawn) [Example 117]
4 | 1000 to 2000 | CCC(c1ccc(S(=O)(=O)CC)cc1)N(Cc1cccnn1)C(=O)C1CC1c1ccc(F)cc1 (stereo not drawn) [Example 118]
5 | 50 to 200 | CCC(c1ccc(S(=O)(=O)CC)cc1)N(Cc1ccc(C(F)(F)F)nc1)C(=O)C1CC1c1ccc(F)cc1F (stereo not drawn) [Example 119]
6 | 200 to 1000 | CCC(c1ccc(S(C)(=O)=O)cc1)N(Cc1ccc(C(F)(F)F)nc1)C(=O)C1CC1c1ccc(F)cc1 (stereo not drawn) [Example 120]
7 | 50 to 200 | CCC(c1ccc(S(C)(=O)=O)cc1)N(Cc1ccc(C(F)(F)F)nc1)C(=O)C1CC1c1ccc(F)cc1 (stereo not drawn) [Example 121]
8 | 50 to 200 | CCC(c1ccc(S(C)(=O)=O)cc1)N(Cc1ccc(F)cn1)C(=O)C1CC1c1ccc(F)cc1 (stereo not drawn) [Example 122]
9 | 200 to 1000 | CC(c1ccc(S(C)(=O)=O)cc1)N(Cc1cccnn1)C(=O)C1CC1c1ccc(F)cc1 (stereo not drawn) [Example 123]
10 | 200 to 1000 | CCC(c1ccc(S(C)(=O)=O)cc1)N(Cc1cccnn1)C(=O)C1CC1c1ccc(F)cc1 (stereo not drawn) [Example 124]
11 | 1000 to 2000 | CCC(c1ccc(S(C)(=O)=O)cc1)N(Cc1cccnn1)C(=O)C1CC1c1ccc(F)cc1 (stereo not drawn) [Example 125]
12 | 200 to 1000 | CC(c1ccc(S(C)(=O)=O)cc1)N(Cc1ccc(C(F)(F)F)nc1)C(=O)C1CC1c1ccc(F)cc1 (stereo not drawn) [Example 126]
13 | 50 to 200 | CCC(c1ccc(S(C)(=O)=O)cc1)N(Cc1ccc(C(F)(F)F)nc1)C(=O)C1CC1c1ccc(F)cc1F (stereo not drawn) [Example 127]
14 | 50 to 200 | CCC(c1ccc(S(C)(=O)=O)cc1)N(Cc1ccc(C(F)(F)F)nc1)C(=O)C1CC1c1ccc(F)cc1F (stereo not drawn) [Example 128]
15 | 50 to 200 | CCC(c1ccc(S(C)(=O)=O)cc1)N(Cc1ccc(C(F)(F)F)nc1)C(=O)C1CC1c1ccc(F)cc1F (stereo not drawn) [Example 129]
16 | 200 to 1000 | CCC(c1ccc(S(=O)(=O)C(C)C)cc1)N(Cc1cccnn1)C(=O)C1CC1c1ccc(F)cc1 (stereo not drawn) [Example 130]
17 | 1000 to 2000 | CN1CCC(C(c2ccc(OC(F)F)cc2)N(C(=O)C2CC2c2ccc(F)cc2)C2CCOCC2)CC1 (stereo not drawn) [Example 140]
18 | 200 to 1000 | CN1CCC(C(c2ccc(OC(F)F)cc2)N(Cc2ccc(F)cn2)C(=O)C2CC2c2ccc(F)cc2)CC1 (stereo not drawn) [Example 142]
19 | 200 to 1000 | CCS(=O)(=O)c1cccc(C(C2CCN(C)CC2)N(Cc2ccc(F)cn2)C(=O)C2CC2c2ccc(F)cc2)c1 (stereo not drawn) [Example 143]
20 | 200 to 1000 | CN1CCC(C(c2ccc(F)cc2F)N(Cc2ccc(F)cn2)C(=O)C2CC2c2ccc(F)cc2)CC1 (stereo not drawn) [Example 144]
21 | 200 to 1000 | CN1CCC(C(c2ccc(F)cc2F)N(Cc2ncccc2F)C(=O)C2CC2c2ccc(F)cc2)CC1 (stereo not drawn) [Example 145]

Row | IC50 [nM] | Compound
22 | 200 to 1000 | CN1CCC(C(c2cccc(C(F)(F)F)c2)N(Cc2ccc(F)cn2)C(=O)C2CC2c2ccc(F)cc2)CC1 (stereo not drawn) [Example 146]
23 | 200 to 1000 | CN1CCC(C(c2cccc(C(F)(F)F)c2)N(Cc2ccc(F)cn2)C(=O)C2CC2c2ccc(F)cc2)CC1 (stereo not drawn) [Example 147]
24 | 200 to 1000 | CN1CCC(C(c2cccc(C(F)(F)F)c2)N(Cc2cncc(F)c2)C(=O)C2CC2c2ccc(F)cc2)CC1 (stereo not drawn) [Example 148]
25 | 200 to 1000 | CN1CC(C(c2ccc(OC(F)F)cc2)N(Cc2ncccc2F)C(=O)C2CC2c2ccc(F)cc2)C1 (stereo not drawn) [Example 150]
26 | 200 to 1000 | CN1CC(C(c2ccc(OC(F)F)cc2)N(Cc2ncccc2F)C(=O)C2CC2c2ccc(F)cc2)C1 (stereo not drawn) [Example 151]
27 | 200 to 1000 | O=C(C1CC1c1ccc(F)cc1)N(Cc1ccc(F)cn1)C(c1ccc(OC(F)F)cc1)C1CNC1 (stereo not drawn) [Example 152]
28 | 1000 to 2000 | O=C(C1CC1c1ccc(F)cc1)N(Cc1ccc(F)cn1)C(c1ccc(OC(F)F)cc1)C1CNC1 (stereo not drawn) [Example 153]
29 | 200 to 1000 | CN1CC(C(c2ccc(OC(F)F)cc2)N(Cc2ccc(F)cn2)C(=O)C2CC2c2ccc(F)cc2)C1 (stereo not drawn) [Example 154]
30 | 200 to 1000 | CN1CC(C(c2ccc(F)cc2)N(Cc2ncccc2F)C(=O)C2CC2c2ccc(F)cc2)C1 (stereo not drawn) [Example 155]
31 | 50 to 200 | CN1CC(C(c2ccc(F)cc2)N(Cc2ncccc2F)C(=O)C2CC2c2ccc(F)cc2)C1 (stereo not drawn) [Example 156]
32 | 200 to 1000 | O=C(C1CC1c1ccc(F)cc1)N(Cc1ncccc1F)C(c1ccc(F)cc1)C1CNC1 (stereo not drawn) [Example 157]
33 | 200 to 1000 | O=C(C1CC1c1ccc(F)cc1)N(Cc1ccc(F)cn1)C(c1ccc(F)cc1)C1CNC1 (stereo not drawn) [Example 158]
34 | 200 to 1000 | CN1CC(C(c2ccc(OC(F)(F)F)cc2)N(Cc2ccc(F)cn2)C(=O)C2CC2c2ccc(F)cc2)C1 (stereo not drawn) [Example 159]
35 | 200 to 1000 | CN1CC(C(c2ccc(OC(F)F)cc2)N(Cc2ccc(C(F)(F)F)cn2)C(=O)C2CC2c2ccc(F)cc2)C1 (stereo not drawn) [Example 160]
36 | 200 to 1000 | CN1CC(C(c2ccc(OC(F)F)cc2)N(Cc2ccc(C(F)(F)F)cn2)C(=O)C2CC2c2ccc(F)cc2)C1 (stereo not drawn) [Example 161]
37 | 200 to 1000 | CN1CC(C(c2ccc(OC(F)(F)F)cc2)N(Cc2cncc(F)c2)C(=O)C2CC2c2ccc(F)cc2)C1 (stereo not drawn) [Example 162]
38 | 200 to 1000 | CN1CC(C(c2ccc(OC(F)(F)F)cc2)N(Cc2cncc(F)c2)C(=O)C2CC2c2ccc(F)cc2)C1 (stereo not drawn) [Example 163]
39 | 200 to 1000 | O=C(C1CC1c1ccc(F)cc1)N(Cc1ncccc1F)C(c1ccc(F)cc1)C1CCOC1 (stereo not drawn) [Example 171]
40 | 50 to 200 | O=C(C1CC1c1ccc(F)cc1)N(Cc1ncccc1F)C(c1ccc(F)cc1)C1CCOC1 (stereo not drawn) [Example 172]
41 | 50 to 200 | O=C(C1CC1c1ccc(F)cc1)N(Cc1cccnn1)C(c1ccc(F)cc1)C1CCOC1 (stereo not drawn) [Example 173]
42 | 50 to 200 | O=C(C1CC1c1ccc(F)cc1)N(Cc1cccnn1)C(c1ccc(F)cc1)C1CCOC1 (stereo not drawn) [Example 174]

Row | IC50 [nM] | Compound
43 | 200 to 1000 | O=C(C1CC1c1ccc(F)cc1)N(Cc1ccc(F)cn1)C(c1ccc(F)cc1)C1CCOC1 (stereo not drawn) [Example 175]
44 | 50 to 200 | O=C(C1CC1c1ccc(F)cc1)N(Cc1ccc(F)cn1)C(c1ccc(F)cc1)C1CCOC1 (stereo not drawn) [Example 176]
45 | 50 to 200 | O=C(C1CC1c1ccc(F)c(F)c1)N(Cc1cccnn1)C(c1ccc(OC(F)F)cc1)C1CC1 (stereo not drawn) [Example 180]
46 | 50 to 200 | O=C(C1CC1c1ccc(F)cc1F)N(Cc1cccnn1)C(c1ccc(OC(F)F)cc1)C1CC1 (stereo not drawn) [Example 182]
47 | 200 to 1000 | O=C(C1CC1c1ccc(F)cc1)N(Cc1cnc[nH]1)C(c1ccc(OC(F)F)cc1)C1CC1 (stereo not drawn) [Example 183]
48 | 200 to 1000 | O=C(C1CC1c1cccc(C(F)(F)F)c1)N(Cc1cccnn1)C(c1ccc(OC(F)F)cc1)C1CC1 (stereo not drawn) [Example 184]
49 | 200 to 1000 | O=C(C1CC1c1ccc(F)cc1)N(CCN1CCCC(F)(F)C1)C(c1ccc(OC(F)F)cc1)C1CC1 (stereo not drawn) [Example 186]
50 | 200 to 1000 | Cn1ccnc1CN(C(=O)C1CC1c1ccc(F)cc1)C(c1ccc(OC(F)F)cc1)C1CC1 (stereo not drawn) [Example 187]
51 | 50 to 200 | O=C(C1CC1c1ccccc1OC(F)(F)F)N(Cc1cccnn1)C(c1ccc(OC(F)F)cc1)C1CC1 (stereo not drawn) [Example 188]
52 | 200 to 1000 | Cn1cncc1CN(C(=O)C1CC1c1ccc(F)cc1)C(c1ccc(OC(F)F)cc1)C1CC1 (stereo not drawn) [Example 189]
53 | < 50 | Cn1cc(CN(C(=O)C2CC2c2ccc(F)cc2)C(c2ccc(OC(F)F)cc2)C2CC2)cn1 (stereo not drawn) [Example 190]
54 | 50 to 200 | CCS(=O)(=O)c1cccc(C(C2CC2)N(CC(F)(F)c2ccccn2)C(=O)C2CC2c2ccc(F)cc2)c1 (stereo not drawn) [Example 191]
55 | 200 to 1000 | CCS(=O)(=O)c1cccc(C(C2CC2)N(Cc2ccncn2)C(=O)C2CC2c2ccc(F)cc2)c1 (stereo not drawn) [Example 192]
56 | 50 to 200 | CCS(=O)(=O)c1cccc(C(C2CC2)N(Cc2ccc(F)cn2)C(=O)C2CC2c2ccc(F)cc2F)c1 (stereo not drawn) [Example 193]
57 | 50 to 200 | CCS(=O)(=O)c1cccc(C(C2CC2)N(Cc2ccc(F)cn2)C(=O)C2CC2c2ccc(F)cc2F)c1 (stereo not drawn) [Example 196]
58 | 50 to 200 | CCS(=O)(=O)c1cccc(C(C2CC2)N(Cc2ccc(F)cn2)C(=O)C2CC2c2ccc(F)c(F)c2)c1 (stereo not drawn) [Example 197]
59 | 50 to 200 | CCS(=O)(=O)c1cccc(C(C2CC2)N(Cc2ccc(F)cn2)C(=O)C2CC2c2cccc(C(F)(F)F)c2)c1 (stereo not drawn) [Example 212]
60 | 50 to 200 | CCS(=O)(=O)c1cccc(C(C2CC2)N(Cc2cncc(F)c2)C(=O)C2CC2c2ccc(F)cc2)c1 (stereo not drawn) [Example 214]
61 | 50 to 200 | CCS(=O)(=O)c1cccc(C(C2CC2)N(Cc2ccc(F)cn2)C(=O)C2CC2c2ccc(F)cc2)c1 (stereo not drawn) [Example 215]
62 | 50 to 200 | CCS(=O)(=O)c1cccc(C(C2CC2)N(Cc2ccccn2)C(=O)C2CC2c2cccc(C(F)(F)F)c2)c1 (stereo not drawn) [Example 216]
63 | 50 to 200 | CCS(=O)(=O)c1cccc(C(C2CC2)N(Cc2ccccn2)C(=O)C2CC2c2cccc(C(F)(F)F)c2)c1 (stereo not drawn) [Example 217]
